# Laboratory results as given in article PMC4965148 (PLoS ONE, 2016).
# “And” between values parts separate entries of the source, which are not always exact repeats. Identical values can stand only once. Like-named read-outs stand apart in the source and are kept apart here.
# Key:
# [1] = biological target: T1, rat α1β1δε nAChR (Rattus norvegicus, UniProt P09660+P25108+P25109+P25110); experiment: Ca2+ flux (FLIPR) agonist/antagonist assay; format: cell-based
# T1 construct: expressed in transfected cells; host or cells: HEK293 (made by Bristol-Myers Squibb)
# T1 sequence (P25108 21-457): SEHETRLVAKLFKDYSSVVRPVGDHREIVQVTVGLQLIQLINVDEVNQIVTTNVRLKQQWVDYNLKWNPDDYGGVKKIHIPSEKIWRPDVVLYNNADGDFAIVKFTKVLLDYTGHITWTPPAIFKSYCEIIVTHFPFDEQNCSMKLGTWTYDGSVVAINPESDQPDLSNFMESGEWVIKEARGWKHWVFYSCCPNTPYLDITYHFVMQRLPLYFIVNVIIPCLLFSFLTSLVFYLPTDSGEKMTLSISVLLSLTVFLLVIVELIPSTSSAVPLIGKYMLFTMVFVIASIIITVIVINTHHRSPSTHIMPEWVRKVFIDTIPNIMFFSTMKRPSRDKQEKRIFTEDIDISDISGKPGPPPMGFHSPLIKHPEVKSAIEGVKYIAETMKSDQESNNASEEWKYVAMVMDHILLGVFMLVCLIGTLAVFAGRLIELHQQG
# T1 sequence (P25109 24-501): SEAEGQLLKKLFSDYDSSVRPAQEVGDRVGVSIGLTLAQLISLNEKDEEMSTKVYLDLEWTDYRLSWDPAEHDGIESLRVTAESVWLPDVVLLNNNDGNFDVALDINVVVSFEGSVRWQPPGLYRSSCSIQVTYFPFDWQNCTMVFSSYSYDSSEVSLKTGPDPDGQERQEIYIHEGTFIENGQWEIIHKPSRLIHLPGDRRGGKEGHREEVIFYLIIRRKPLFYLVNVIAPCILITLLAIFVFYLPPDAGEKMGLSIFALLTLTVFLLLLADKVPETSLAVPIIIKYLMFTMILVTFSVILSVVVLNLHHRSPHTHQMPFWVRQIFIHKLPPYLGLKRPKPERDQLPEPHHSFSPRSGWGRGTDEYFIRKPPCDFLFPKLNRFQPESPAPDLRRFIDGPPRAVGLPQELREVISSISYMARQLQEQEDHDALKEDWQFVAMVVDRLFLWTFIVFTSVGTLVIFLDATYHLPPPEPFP
# T1 sequence (P25110 22-517): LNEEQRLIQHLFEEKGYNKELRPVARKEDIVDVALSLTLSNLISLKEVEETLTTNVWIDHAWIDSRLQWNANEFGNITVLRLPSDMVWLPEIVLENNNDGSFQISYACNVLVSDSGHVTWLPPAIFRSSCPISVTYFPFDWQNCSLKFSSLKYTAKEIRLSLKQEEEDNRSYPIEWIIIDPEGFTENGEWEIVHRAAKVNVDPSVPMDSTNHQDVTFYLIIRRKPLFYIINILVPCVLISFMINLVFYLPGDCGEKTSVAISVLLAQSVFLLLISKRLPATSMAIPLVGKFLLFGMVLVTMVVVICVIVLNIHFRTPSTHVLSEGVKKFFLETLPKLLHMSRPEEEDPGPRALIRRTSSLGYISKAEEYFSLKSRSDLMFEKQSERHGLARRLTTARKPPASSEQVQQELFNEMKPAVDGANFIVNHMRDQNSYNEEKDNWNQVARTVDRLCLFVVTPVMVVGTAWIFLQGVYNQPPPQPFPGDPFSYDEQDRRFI
# T1 sequence (P09660 21-494): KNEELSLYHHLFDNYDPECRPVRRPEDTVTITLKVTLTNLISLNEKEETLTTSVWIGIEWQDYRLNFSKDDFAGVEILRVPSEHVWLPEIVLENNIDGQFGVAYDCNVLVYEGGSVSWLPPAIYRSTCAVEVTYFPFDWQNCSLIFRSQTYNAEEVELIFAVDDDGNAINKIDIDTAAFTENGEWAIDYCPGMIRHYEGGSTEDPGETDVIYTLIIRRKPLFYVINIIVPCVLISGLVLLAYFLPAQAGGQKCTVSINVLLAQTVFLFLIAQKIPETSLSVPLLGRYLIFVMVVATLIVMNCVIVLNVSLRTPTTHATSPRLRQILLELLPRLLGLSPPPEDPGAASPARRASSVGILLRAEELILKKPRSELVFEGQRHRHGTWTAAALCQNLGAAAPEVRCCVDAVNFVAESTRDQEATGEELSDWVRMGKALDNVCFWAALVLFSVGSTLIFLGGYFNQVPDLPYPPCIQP
# [2] = biological target: T2, rat α3β4 nAChR (Rattus norvegicus, UniProt P04757+P12392); experiment: Ca2+ flux (FLIPR) agonist/antagonist assay; format: cell-based
# T2 construct: expressed in transfected cells; host or cells: HEK293 (made by Bristol-Myers Squibb)
# T2 sequence (P04757 26-499): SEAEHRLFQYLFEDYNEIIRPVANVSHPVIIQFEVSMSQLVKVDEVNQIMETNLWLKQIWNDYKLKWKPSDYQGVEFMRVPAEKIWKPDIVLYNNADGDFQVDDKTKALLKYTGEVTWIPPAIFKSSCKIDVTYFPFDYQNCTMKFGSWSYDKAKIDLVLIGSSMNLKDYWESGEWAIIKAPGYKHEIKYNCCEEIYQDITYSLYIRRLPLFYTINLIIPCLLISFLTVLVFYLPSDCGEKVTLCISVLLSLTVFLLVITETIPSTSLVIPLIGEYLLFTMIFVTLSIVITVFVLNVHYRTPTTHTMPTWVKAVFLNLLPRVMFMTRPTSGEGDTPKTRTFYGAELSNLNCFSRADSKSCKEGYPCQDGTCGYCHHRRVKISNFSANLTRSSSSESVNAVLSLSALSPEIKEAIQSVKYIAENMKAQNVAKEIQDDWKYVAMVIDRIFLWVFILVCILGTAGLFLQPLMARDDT
# T2 sequence (P12392 21-495): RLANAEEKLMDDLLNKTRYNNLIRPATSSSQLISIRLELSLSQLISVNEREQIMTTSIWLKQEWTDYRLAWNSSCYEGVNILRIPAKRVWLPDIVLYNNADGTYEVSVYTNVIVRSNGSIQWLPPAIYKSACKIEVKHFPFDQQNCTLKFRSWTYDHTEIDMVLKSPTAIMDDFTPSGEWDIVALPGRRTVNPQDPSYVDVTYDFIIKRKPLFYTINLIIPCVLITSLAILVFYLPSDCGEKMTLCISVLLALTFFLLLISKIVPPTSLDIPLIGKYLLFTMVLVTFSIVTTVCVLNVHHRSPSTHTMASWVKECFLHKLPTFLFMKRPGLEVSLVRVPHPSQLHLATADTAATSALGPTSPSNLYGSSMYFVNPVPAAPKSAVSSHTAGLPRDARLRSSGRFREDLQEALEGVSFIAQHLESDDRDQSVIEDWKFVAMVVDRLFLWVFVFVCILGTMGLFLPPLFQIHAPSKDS
# [3] = biological target: T3, rat α4β2 nAChR (Rattus norvegicus, UniProt P09483+P12390); experiment: Ca2+ flux (FLIPR) agonist/antagonist assay; format: cell-based
# T3 construct: expressed in transfected cells; host or cells: HEK293 (made by Bristol-Myers Squibb)
# T3 sequence (P09483 31-630): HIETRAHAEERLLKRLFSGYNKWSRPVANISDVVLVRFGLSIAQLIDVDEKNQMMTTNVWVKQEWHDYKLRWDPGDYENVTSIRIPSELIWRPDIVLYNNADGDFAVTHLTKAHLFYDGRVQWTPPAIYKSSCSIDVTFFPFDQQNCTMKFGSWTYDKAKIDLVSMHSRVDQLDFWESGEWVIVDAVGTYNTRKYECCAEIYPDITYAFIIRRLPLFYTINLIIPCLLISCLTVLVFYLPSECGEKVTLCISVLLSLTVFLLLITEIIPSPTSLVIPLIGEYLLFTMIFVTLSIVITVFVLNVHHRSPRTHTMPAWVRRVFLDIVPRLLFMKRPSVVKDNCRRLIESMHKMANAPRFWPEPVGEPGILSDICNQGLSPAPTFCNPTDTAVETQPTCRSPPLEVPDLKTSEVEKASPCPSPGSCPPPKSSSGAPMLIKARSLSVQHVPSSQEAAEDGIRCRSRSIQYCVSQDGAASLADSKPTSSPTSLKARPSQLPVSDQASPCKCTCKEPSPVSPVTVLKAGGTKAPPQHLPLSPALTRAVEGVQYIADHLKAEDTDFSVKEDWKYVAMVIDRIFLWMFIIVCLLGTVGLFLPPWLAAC
# T3 sequence (P12390 25-500): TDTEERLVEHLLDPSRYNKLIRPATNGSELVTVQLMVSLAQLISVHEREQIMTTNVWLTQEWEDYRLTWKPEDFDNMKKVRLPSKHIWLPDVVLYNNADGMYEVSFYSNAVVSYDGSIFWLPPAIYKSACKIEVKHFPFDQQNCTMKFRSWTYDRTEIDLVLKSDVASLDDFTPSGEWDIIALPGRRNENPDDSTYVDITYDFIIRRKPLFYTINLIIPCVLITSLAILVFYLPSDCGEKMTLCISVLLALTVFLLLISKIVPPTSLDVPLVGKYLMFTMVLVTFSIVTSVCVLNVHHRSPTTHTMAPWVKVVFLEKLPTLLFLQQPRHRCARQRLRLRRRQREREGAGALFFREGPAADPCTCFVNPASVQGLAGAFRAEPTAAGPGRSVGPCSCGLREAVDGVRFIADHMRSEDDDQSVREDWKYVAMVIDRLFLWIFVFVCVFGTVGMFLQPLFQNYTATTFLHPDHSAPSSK
# [4] = biological target: T4, HEK293/Human 5-HT3A (Homo sapiens, UniProt P46098); experiment: Ca2+ flux (FLIPR) 5-HT3A antagonist assay; format: cell-based
# T4 construct: expressed in transfected cells; host or cells: HEK293 (made by Bristol-Myers Squibb)
# T4 sequence (P46098 24-478): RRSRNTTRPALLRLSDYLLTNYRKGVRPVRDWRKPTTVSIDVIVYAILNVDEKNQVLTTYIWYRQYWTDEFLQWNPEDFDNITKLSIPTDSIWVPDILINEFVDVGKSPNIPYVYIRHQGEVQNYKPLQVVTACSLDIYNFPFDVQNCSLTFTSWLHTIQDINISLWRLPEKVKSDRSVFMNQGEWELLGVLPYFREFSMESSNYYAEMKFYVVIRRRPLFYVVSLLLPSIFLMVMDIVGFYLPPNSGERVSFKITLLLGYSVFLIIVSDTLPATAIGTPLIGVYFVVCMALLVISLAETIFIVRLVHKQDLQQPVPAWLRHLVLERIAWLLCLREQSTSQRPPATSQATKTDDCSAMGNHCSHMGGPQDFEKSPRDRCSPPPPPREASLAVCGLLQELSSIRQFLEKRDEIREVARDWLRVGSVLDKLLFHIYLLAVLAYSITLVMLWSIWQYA
# Method: Functional activity was examined using Ca^2+-sensitive, dye-based, microfluorometric assays read on the FLIPR Tetra plate reader platform (Molecular Devices, CA, USA). Cells were plated in 384-well black, clear-bottomed Greiner poly-D-lysine coated plates at a density of ~25 K cells/well and incubated at 29°C for 48 h. Prior to assay, media contents were removed and cells incubated in assay buffer containing 5μM final Fluo-4 dye for 90 min. For nAChR assays, the dye-loading buffer was HBSS (#14175 Life Technologies) supplemented with 20 mM HEPES, 0.5 mM CaCl2, 1 mM MgCl2 and 10 μM atropine (final concentration). Test compounds were solubilized in DMSO and serially diluted in NUNC 384-well plates prior to addition of assay buffer (5.3 mM KCl + 140 mM NaCl + 20 mM Hepes + 25 mM CaCl2 + 1 mM MgCl2 + 10 μM atropine final concentration). Compounds diluted in assay buffer were added to the assay plate by the FLIPR and read for approximately 2 min. […] For 5-HT3A antagonist studies, the dye loading and compound diluent buffer was HBSS (#14025 Life Technologies) supplemented with 20 mM HEPES (final concentration) and the concentration of 5-HT used in the assay was 2 μM. Offline transformation of concentration response data was done using a 4 parameter logistic fit using a Bristol-Myers Squibb proprietary informatics software suite.
# [5] = biological target: T5, HEK293/rat α7 nAChR cells (Rattus norvegicus, UniProt Q05941); experiment: Whole cell voltage clamp electrophysiology; format: cell-based; conditions: for Net Charge (Current Area) normalized to 300 µM ACh / Peak Current normalized to 3 mM ACh: individual cells
# T5 construct: expressed in transfected cells
# T5 sequence (Q05941 23-502): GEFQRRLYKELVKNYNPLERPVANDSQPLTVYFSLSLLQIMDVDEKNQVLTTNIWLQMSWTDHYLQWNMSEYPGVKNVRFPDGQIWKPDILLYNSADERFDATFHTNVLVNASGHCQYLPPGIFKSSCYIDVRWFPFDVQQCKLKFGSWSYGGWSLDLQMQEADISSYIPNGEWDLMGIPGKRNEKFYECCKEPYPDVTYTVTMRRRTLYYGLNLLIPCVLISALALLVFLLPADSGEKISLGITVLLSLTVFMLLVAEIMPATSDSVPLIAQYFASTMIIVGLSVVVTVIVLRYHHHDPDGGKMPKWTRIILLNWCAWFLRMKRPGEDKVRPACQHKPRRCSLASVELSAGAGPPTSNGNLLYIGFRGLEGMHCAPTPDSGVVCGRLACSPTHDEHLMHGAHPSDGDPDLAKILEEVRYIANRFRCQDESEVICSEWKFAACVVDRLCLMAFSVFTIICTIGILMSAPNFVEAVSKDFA
# Method: Whole-cell voltage clamp studies were conducted on HEK293/rat α7 or HEK293/human α7 nAChR cells. […] Atropine (1 μM) was included in the bathing solution. […] Cells were voltage clamped at a holding potential of -90 mV. Using the Dynaflow microfluidic perfusion system (Cellectricon; flow 26 μl/min) responses to a 300 ms application of ACh or α7 nAChR agonists were measured. Currents were filtered at 2 kHz and sampled at 10 kHz using an EPC-9 amplifier and HEKA Pulse/Patchmaster software. […] The peak current amplitude and net charge crossing the membrane (i.e. the area under the current response curve) induced by agonist application were measured using Clampfit (pClamp Suite) and normalized to the maximal response induced by ACh (3 mM ACh for peak current amplitude and 300 μM ACh for net charge).
# [6] = biological target: α7 nAChR; conditions: read-out: reported Ki; cited from earlier work
# [7] = biological target: T6, human 5-HT3A receptors (Homo sapiens, UniProt P46098); experiment: biochemical; conditions: human 5-HT3A Ki, displacement of [3H]-granisetron
# T6 sequence (P46098 24-478): T4 sequence (P46098 24-478)
# [8] = biological target: HEK293/Human α7 nAChR (Homo sapiens, UniProt P36544); experiment: [3H]-A-585539 filtration binding; set-up: expressed in transfected cells; conditions: recombinant human α7 nAChR; n = 2; read-out: mean Kd, saturation binding
# Sequence of HEK293/Human α7 nAChR (P36544 23-502): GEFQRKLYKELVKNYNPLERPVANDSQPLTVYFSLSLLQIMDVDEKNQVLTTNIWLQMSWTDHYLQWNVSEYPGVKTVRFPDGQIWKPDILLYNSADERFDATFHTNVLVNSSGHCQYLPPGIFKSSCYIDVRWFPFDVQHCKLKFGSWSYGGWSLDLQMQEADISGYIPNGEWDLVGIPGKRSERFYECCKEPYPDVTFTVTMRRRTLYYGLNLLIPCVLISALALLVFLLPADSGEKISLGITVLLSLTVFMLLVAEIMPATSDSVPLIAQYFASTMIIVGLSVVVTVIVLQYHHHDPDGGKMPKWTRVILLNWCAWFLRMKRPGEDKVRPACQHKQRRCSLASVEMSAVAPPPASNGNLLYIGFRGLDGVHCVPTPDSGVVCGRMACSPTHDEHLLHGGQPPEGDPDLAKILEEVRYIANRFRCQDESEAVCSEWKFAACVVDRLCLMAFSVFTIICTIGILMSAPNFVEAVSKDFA
smiles,measurement,setting,value
"Cl.O=C(N[C@H]1CN2CCC1CC2)c1ccc(Cl)cc1 [PNU-282987, N-(3R)-1-azabicyclo[2.2.2]oct-3-yl-4-chloro-benzamide hydrochloride]",EC50,"[1]; FLIPR agonist mode, read-out: agonist EC50 at α1β1δε nAChR",> 100 µM
same,EC50,"[2]; FLIPR agonist mode, read-out: agonist EC50 at α3β4 nAChR",> 100 µM
same,EC50,"[3]; FLIPR agonist mode, read-out: agonist EC50 at α4β2 nAChR",> 100 µM
same,Ratio (5-HT3A IC50 / α7 nAChR EC50; functional selectivity),[4]; FLIPR,264
same,IC50,"[4]; HEK293/Human 5-HT3A Mean ± SD IC50, Ca2+ flux (FLIPR), antagonism of 2 μM 5-HT",24.9 µM
same,IC50,"[4]; Human 5-HT3A IC50 values (individual), FLIPR, individual determinations",32.1 µM and 23.6 µM and 6.35 µM and 38.4 µM and 24.1 µM
"O=C(N[C@@H]1C2CCN(CC2)[C@H]1Cc1cccnc1)c1cc2ccccc2o1 [TC-5619, (2S,3R)-N-[2-(pyridin-3-ylmethyl)-1-azabicyclo[2.2.2]oct-3-yl]benzo[b]furan-2-carboxamide]",EC50,[1],> 100 µM
same,EC50,[2],> 100 µM
same,EC50,[3],> 100 µM
same,IC50,"[4]; Ca2+ flux (FLIPR), antagonism of 2 μM 5-HT, read-out: HEK293/Human 5-HT3A Mean ± SD IC50",> 100 µM
same,IC50,"[4]; FLIPR, individual determinations, read-out: Human 5-HT3A IC50 values (individual)",> 100 µM
same,Net Charge (Current Area) normalized to 300 µM ACh,[5]; 0.001 µM,0.01291 and 0.1795 and 0.008199
same,Peak Current normalized to 3 mM ACh,[5]; 0.001 µM,0.003543 and 0.01162 and 0.003662
same,Net Charge (Current Area) normalized to 300 µM ACh,[5]; 0.003 µM,-0.00013 and 0.03241 and 0.001885
same,Peak Current normalized to 3 mM ACh,[5]; 0.003 µM,0.003116 and 0.008701 and 0.005453
same,Net Charge (Current Area) normalized to 300 µM ACh,[5]; 0.01 µM,0.000016 and 0.002188 and -0.00959
same,Peak Current normalized to 3 mM ACh,[5]; 0.01 µM,0.006073 and 0.007536 and 0.009875
same,Net Charge (Current Area) normalized to 300 µM ACh,[5]; 0.03 µM,0.1492 and 0.1468 and 0.2028
same,Peak Current normalized to 3 mM ACh,[5]; 0.03 µM,0.02004 and 0.01567 and 0.02139
same,Mean ± SEM Net Charge Ymax,"[5]; Rat, normalized to 300 μM ACh",1.26 ± 0.02
same,Mean ± SEM Peak Current Ymaxobs @ 10 μM,"[5]; Rat, normalized to 3 mM ACh",0.55 ± 0.06
same,Net Charge (Current Area) normalized to 300 µM ACh,[5]; TC-5619 series 0.1 µM,0.6879 and 0.7239 and 0.8481
same,Peak Current normalized to 3 mM ACh,[5]; TC-5619 series 0.1 µM,0.05408 and 0.04485 and 0.05183
same,Net Charge (Current Area) normalized to 300 µM ACh,[5]; TC-5619 series 0.3 µM,1.093 and 1.107 and 1.105
same,Peak Current normalized to 3 mM ACh,[5]; TC-5619 series 0.3 µM,0.1599 and 0.1241 and 0.1149
same,Net Charge (Current Area) normalized to 300 µM ACh,[5]; TC-5619 series 1 µM,1.242 and 1.143 and 1.297
same,Peak Current normalized to 3 mM ACh,[5]; TC-5619 series 1 µM,0.276 and 0.2576 and 0.2679
same,Net Charge (Current Area) normalized to 300 µM ACh,[5]; TC-5619 series 3 µM,1.234 and 1.271 and 1.312
same,Peak Current normalized to 3 mM ACh,[5]; TC-5619 series 3 µM,0.4166 and 0.4279 and 0.4555
same,Net Charge (Current Area) normalized to 300 µM ACh,[5]; TC-5619 series 10 µM,1.226 and 1.317 and 1.306
same,Peak Current normalized to 3 mM ACh,[5]; TC-5619 series 10 µM,0.4847 and 0.4851 and 0.6732
same,Ki,[6],0.001 µM
same,Ki,[7],> 10 µM
"C[N+]1(C)CC2CC1CN2c1ccc(-c2ccccc2)nn1 (stereo not shown) [[^3H]-A-585539, ^3H-2,2-dimethyl-5-(6-phenyl-3-pyridazinyl)-5-aza-2-azoniabicyclo[2.2.1]heptane iodide]",Kd,[8],0.000656 µM
